Results reported in US11453904B2, “Evaluation method for permeability of porous membrane, cell evaluation method, and drug evaluation method” (FUJIFILM CORPORATION, priority 2019, dated 2022).

System: endothelial cells 301 and the smooth muscle cells 302
Assay: drug evaluation method: toxicity of a drug to cells cultured on the porous membrane of a microfluidic device, read by flow rate in the lower micro flow channel
Assay type: cell-based
Settings: cytochalasin 50 μg/ml contained in liquid A and liquid B; concluded from the increased flow-rate slope (decreased barrier property)
Excerpt: The drug evaluation method according to the present embodiment includes culturing cells on the surface of the porous membrane 30 of the microfluidic device 110 (a step S41). […] This makes it possible to form a structure that simulates the blood vessel (the artery) in the microfluidic device 110. It is noted that the cells to be evaluated may be cultured only on one surface of the porous membrane 30.
The drug evaluation method according to the present embodiment includes exposing cells cultured on the surface of the porous membrane 30 to a drug to be evaluated (a step S42). That is, a liquid containing a drug to be evaluated is supplied to each of the upper micro flow channel 18 and the lower micro flow channel 24.
The drug evaluation method according to the present embodiment includes acquiring the evaluation indicator of the permeability of the porous membrane 30 according to any one of the first to third embodiments described above as an indicator of toxicity of the drug to be evaluated to the cells. That is, the change that occurs in the liquid accommodated in the lower micro flow channel 24 is acquired as an indicator of toxicity of the drug to be evaluated to the cells, in a case where the liquid is supplied to the upper micro flow channel 18 while the supply pressure is being changed (a step S43). […]

In the case of cytochalasin, the “toxicity to the endothelial cells 301 and the smooth muscle cells 302” value is reported as “has toxicity”.
